In patent publication US8247569B2, “Cyclohexane derivative and pharmaceutical use thereof” (Toray Industries, Inc., priority 2008, dated 2012):
Where two headings read alike, the source gives them in different places.

Assays:
[1] = system: mouse acetic acid writhing model; test: mouse acetic acid writhing model (nociceptive pain); assay type: in vivo; conditions: for ED50: male ddY mice, oral administration 45 min before 0.6% acetic acid i.p., dose suppressing 50% of writhing responses vs vehicle group, vehicle A or B
[2] = human liver microsomal stability assay; assay type: in vitro ADME; conditions: liver microsomes, pH 7.4, human liver microsomes 0.5 mg/mL, test compound 2 μmol/L, 37° C., 0-30 min, read-out: Human hepatic intrinsic clearance
Experimental: A liver microsomal stability assay, which is known to be an in vitro assay for evaluation of the stability of a compound against hepatic metabolism, was carried out to evaluate the stability of Compound (I) against human and mouse hepatic metabolism.
A total of 4 times of experiments were carried out for the combinations of the compound of Example 2-B or the compound of Comparative Example 29 as the test compound and human liver microsomes (Xenotech) or mouse liver microsomes (Xenotech) as the liver microsomes.
The respective reagents to be used for the liver microsomal stability assay were prepared as follows. That is, an appropriate amount of D-glucose 6-phosphate disodium salt (hereinafter referred to as G6P) was dissolved in distilled water at 100 mmol/L, to prepare 100 mmol/L aqueous G6P solution. In 5 mL of distilled water, 1000 units of Glucose 6-phosphate dehydrogenase from Yeast (hereinafter referred to as G6PDH) was dissolved, to prepare 200 units/mL aqueous G6PDH solution. An appropriate amount of MgCl2 was dissolved in distilled water at 100 mmol/L, to prepare 100 mmol/L aqueous MgCl2 solution. To 500 mL of 200 mmol/L aqueous K2HPO4 solution, 200 mmol/L aqueous KH2PO4 solution (about 130 mL) was added, and pH was adjusted to 7.4, to prepare 200 mmol/L KH2PO4/K2HPO4 buffer pH7.4 (hereinafter referred to as 200 mmol/L PB). β-nicotinamide-adenine dinucleotide phosphate, reduced form, tetrasodium salt (hereinafter referred to as (NADPH) was dissolved in distilled water such that the NADPH content becomes 10 mmol/L based on the purity (Purity NADPH) in the assay data described in the attached document, to prepare 10 mmol/L aqueous NADPH solution.
The liver microsomal stability assay was carried out according to the following procedure. First, the reagents listed in Table 12 (excluding microsomes) were mixed together to prepare a reaction mixture, and the reaction mixture was aliquoted in 130 μL volumes to 4 wells (which play roles as the wells for the 0-minute reaction, well for the 30-minute reaction, well for the 20-minute reaction and well for the 10-minute reaction, respectively) in a 96-well tube plate (BM Equipment Co., Ltd; hereinafter referred to as plate). The entire plate was covered with a silicone cap, and the plate was subjected to preincubation by being soaked in a water bath at 37° C. for 10 minutes.
After the preincubation, 3.75 μL of 20 mg/mL microsome suspension+16.25 μL of distilled water (20 μL in total) were added to the well for the 30-minute reaction, and the plate was covered with the cap, followed by soaking the plate in a water bath at 37° C. to initiate the reaction.
Ten minutes after the beginning of the reaction, 3.75 μL of 20 mg/mL microsome suspension+16.25 μL of distilled water (20 μL in total) were added to the well for the 20-minute reaction, and 20 minutes after the beginning of the reaction, 3.75 μL of 20 mg/mL microsome suspension+16.25 μL of distilled water (20 μL in total) were added to the well for the 10-minute reaction. The reaction was further continued by keeping the plate soaked in the water bath at 37° C.
Thirty minutes after the beginning of the reaction, the plate was removed from the water bath, and 120 μL of acetonitrile was added to each well, followed by covering the plate with the cap, stirring the plate for 10 seconds with Direct Mixer, and stopping the reaction by 10 minutes of ice cooling. After the reaction was stopped, 3.75 μL of 20 mg/mL microsome suspension+16.25 μL of distilled water (20 μL in total) were added to the well for the 0-minute reaction.
The reaction liquid in each well was centrifuged at 4° C. at 2500 rpm for 10 minutes, and the supernatant was transferred to a glass-coated microplate (TOMSIC Plate+) to begin LC/MS/MS analysis. The conditions for the LC/MS/MS analysis were as follows: […]

[3] = system: mouse sciatic nerve-ligation model (Seltzer model); test: mouse partial sciatic nerve ligation model (Seltzer model), von Frey test; conditions: for von Frey Total Score Observed 1 Hour after Oral Administration (mean ± standard error), Compound-administered group: n = 5 to 6

| SMILES | ED50 ([1]; Mus musculus, read-out: ED50) [mg/kg] | other results |
| --- | --- | --- |
| OC1CCC(O)(c2cc(-c3ccc(F)cc3)n(-c3ccc(Cl)cc3)n2)CC1 (centres unmarked) [compound 15] | > 10 |  |
| OC1CCC(O)(c2cc(-c3ccc(Cl)cc3)n(-c3ccc(Cl)cc3Cl)n2)CC1 (centres unmarked) [compound 7] | > 10 |  |
| COc1ccc(-n2nc(C3(O)CCC(O)CC3)cc2-c2ccc(S(C)(=O)=O)cc2)cc1 (centres unmarked) [Comparative Example 3] | > 10 |  |
| COc1ccc(-n2nc(C3(OC)CCC(O)CC3)cc2-c2ccc(C)cc2)cc1 (centres unmarked) [Comparative Example 27, 4-Methoxy-4-(1-(4-methoxyphenyl)-5-p-tolyl-1H-pyrazol-3-yl)cyclohexanol] | > 10 |  |
| COc1ccc(-n2nc(C3(O)CCC(O)CC3)cc2-c2ccc(C)cc2)cc1F (centres unmarked) [Compound 29] | 3.77 |  |
| COc1ccc(-n2nc(C3(O)CCC(OC)CC3)cc2-c2ccc(C)cc2)cc1 (centres unmarked) [Example 63, 4-Methoxy-1-(1-(4-methoxyphenyl)-5-(p-tolyl)-1H-pyrazol-3-yl)cyclohexanol] | 5.36 |  |
| COc1ccc(-n2nc(C3(O)CCC(O)(C(F)(F)F)CC3)cc2-c2ccc(C)cc2)cc1 (stereo not drawn) [Example 62, 1-(1-(4-Methoxyphenyl)-5-(p-tolyl)-1H-pyrazol-3-yl)-4-(trifluoromethyl)cyclohexan-cis-1,4-diol] | 0.54 | microsomal CLint at 2 μmol/L [2]: 33.3 µL/min/mg; analgesic effect 3 hours after the oral administration (von Frey test) ([3]; oral administration of Example 2-B and Example 62 in amounts of 0.3 and 1.0 mg/kg, respectively, FIG. 2, FIG. 3): a strong analgesic effect was maintained |
| COc1ccc(-n2nc(C3(CO)CCC(O)CC3)cc2-c2ccc(C)cc2)cc1 (stereo not drawn) [Example 65-A, 4-(Hydroxymethyl)-4-(1-(4-methoxyphenyl)-5-p-tolyl-1H-pyrazol-3-yl)-trans-1,4-cyclohexanol] | 1.44 |  |
| Cc1ccc(-c2cc(C3(O)CCC(O)CC3)nn2-c2ccc(Cl)cc2)cc1 (stereo not drawn) [Example 6-A, 1-(1-(4-Chlorophenyl)-5-p-tolyl-1H-pyrazol-3-yl)cyclohexan-trans-1,4-diol] | 7.97 |  |
| NS(=O)(=O)c1ccc(-n2nc(C3CCCCC3)cc2-c2ccccc2)cc1CO [Comparative Example 30, 4-(3-Cyclohexyl-5-phenyl-1H-pyrazol-1-yl)-2-(hydroxymethyl)benzenesulfonamide] | > 10 | reduction in the number of writhing responses ([1]; administration of 10 mg/kg, t-test): did not cause significant reduction |
| COc1ccc(-n2nc(C3(O)CCC(O)CC3)cc2-c2cccnc2OC)cc1 (centres unmarked) [compound 24] | > 10 |  |
| Cc1ccc(-c2cc(C3(O)CCC(O)CC3)nn2-c2ccc(F)cc2)cc1 (centres unmarked) [compound 11] | > 10 |  |
| COc1ccc(-c2nc(C3(O)CCC(O)CC3)sc2-c2ccc(C)cc2)cc1 (stereo not drawn) [Example 69-A, 1-(4-(4-Methoxyphenyl)-5-(p-tolyl)thiazol-2-yl)cyclohexan-trans-1,4-diol] | 3.02 |  |
| COc1ccc(-n2nc(C3(O)CCCCC3)cc2-c2ccc(C)cc2)cc1 [Compound 1] | 3.78 |  |
| COc1ccc(-n2nc(C3(O)CCC(O)CC3)cc2-c2ccc(C)c(F)c2)cc1 (centres unmarked) [Compound 31] | 0.41 | von Frey Total Score Observed 1 Hour after Oral Administration (mean ± standard error), Compound-administered group ([3]; dose 3 mg/kg oral, vehicle B (27% HP-β-CD)): 0.7 ± 0.5 |
| COc1ccc(-n2nc(C3(O)CCC(O)CC3)cc2-c2ccc(C)cc2)cc1 (stereo not drawn) [Example 2-A, 1-(1-(4-Methoxyphenyl)-5-(p-tolyl)-1H-pyrazol-3-yl)cyclohexan-trans-1,4-diol] | 1.8 | microsomal CLint at 2 μmol/L [2]: 45.1 µL/min/mg; analgesic effect 3 hours after the oral administration (von Frey test) ([3]; oral administration of 0.3 mg/kg, FIG. 1): a strong analgesic effect was maintained |
| CCc1ccc(-c2cc(C3(O)CCC(O)CC3)nn2-c2ccc(OC)cc2)cc1 (centres unmarked) [Compound 28] | 5.27 |  |
| NCC1(CC(=O)O)CCCCC1 [gabapentin, reference compound] |  | analgesic effect 3 hours after the oral administration (von Frey test) ([3]; positive controls, gabapentin 30 mg/kg oral, dose of Comparative Example 29 not given): drastically decreased; time of strongest analgesic effect after oral administration (von Frey test) ([3]; positive controls, gabapentin 30 mg/kg oral, dose of Comparative Example 29 not given, FIGS. 1 to 4): 1 h |

| SMILES | ED50 ([1]; Mus musculus, read-out: ED50) [mg/kg] | other results |
| --- | --- | --- |
| COc1ccc(-n2nc(C3(O)CCC(O)CC3)c(F)c2-c2ccc(C)cc2)cc1 (stereo not drawn) [Comparative Example 28, 1-(4-Fluoro-1-(4-methoxyphenyl)-5-(p-tolyl)-1H-pyrazol-3-yl)cyclohexan-cis-1,4-diol] | > 10 |  |
| COc1ccc(-n2nc(C3(O)CCC(O)CC3)cc2-c2ccc(C)cc2)cc1F (centres unmarked) [Example 30] |  | microsomal CLint at 2 μmol/L [2]: 3.92 µL/min/mg |
| COc1ccc(-c2cc(C3(O)CCC(O)CC3)nn2-c2ccc(OC)cc2)cc1 (single isomer, unassigned) [Example 4-B, 1-(1,5-Bis(4-methoxyphenyl)-1H-pyrazol-3-yl)cyclohexan-cis-1,4-diol] |  | microsomal CLint at 2 μmol/L [2]: 8.69 µL/min/mg; von Frey total score compared to the vehicle group ([3]; 1 hour after oral administration, doses as in Table 11): significantly improved; von Frey Total Score Observed 1 Hour after Oral Administration (mean ± standard error), Compound-administered group ([3]; dose 10 mg/kg oral, […]): 2.2 ± 0.5 |
| OC1CCC(O)(c2cc(-c3ccc(F)cc3)n(-c3ccccc3)n2)CC1 (centres unmarked) [compound 19] | > 10 |  |
| Cc1ccc(-c2cc(C3(O)CCC(O)CC3)nn2-c2ccc(S(C)(=O)=O)cc2)cc1 (centres unmarked) [compound 23] | > 10 |  |
| COc1ccc(-n2nc(C3(F)CCC(O)CC3)cc2-c2ccc(C)cc2)cc1 (centres unmarked) [Example 60, t-4-Fluoro-4-(1-(4-methoxyphenyl)-5-(p-tolyl)-1H-pyrazol-3-yl)-cyclohexan-r-1-ol] | 1.37 |  |
| COc1ccc(-n2nc(C3(O)CCC(O)CC3)cc2-c2ccc(C)cc2)cc1F (centres unmarked) [Compound 30] |  | von Frey Total Score Observed 1 Hour after Oral Administration (mean ± standard error), Compound-administered group ([3]; dose 10 mg/kg oral, […]): 1.2 ± 0.6 |
| OC1CCC(O)(c2cc(-c3ccc(Cl)cc3)n(-c3ccc(F)cc3)n2)CC1 (centres unmarked) [compound 5] | > 10 |  |
| COc1ccc(-c2nc(C3(O)CCC(O)(C(F)(F)F)CC3)sc2-c2ccc(C)cc2)cc1 (stereo not drawn) [Example 70-B, 1-(4-(4-Methoxyphenyl)-5-(p-tolyl)thiazol-2-yl)-4-(trifluoromethyl)cyclohexan-cis-1,4-diol] |  | ED50 [1]: 9.65 mg/kg |
| OC1CCC(O)(c2cc(-c3ccc(F)cc3)n(-c3ccc(F)cc3)n2)CC1 (centres unmarked) [compound 17] | > 10 |  |
| COc1ccc(-n2nc(C3(O)CCC(O)CC3)cc2-c2ccccc2C)cc1 (centres unmarked) [compound 1] | > 10 |  |
| COc1ccc(-n2nc(C3(O)CCC(O)CC3)cc2-c2cccc(C)c2)cc1 (centres unmarked) [compound 10] | > 10 |  |
| COc1ccc(-n2nc(C3(OC(C)=O)CCC(O)CC3)cc2-c2ccc(C)cc2)cc1 (centres unmarked) [Comparative Example 26, c-4-Hydroxy-1-(1-(4-methoxyphenyl)-5-(p-tolyl)-1H-pyrazol-3-yl)-cyclohexan-r-1-yl acetate] | > 10 |  |
| COc1ccc(-n2nc(C3(O)CCC(O)CC3)cc2-c2ccc(F)cc2)cc1 (centres unmarked) [compound 13] | > 10 |  |
| CCOC(=O)C1CCC(O)(c2cc(-c3ccc(C)cc3)n(-c3ccc(OC)cc3)n2)CC1 (stereo not drawn) [Example 71, Ethyl 4-hydroxy-4-(1-(4-methoxyphenyl)-5-p-tolyl-1H-pyrazol-3-yl)-cis-cyclohexanecarboxylate] | 1.58 |  |
| Cc1ccc(-n2nc(C3(O)CCC(O)CC3)cc2-c2ccc(F)cc2)cc1 (centres unmarked) [compound 21] | > 10 |  |
| CCc1ccc(-c2cc(C3(O)CCC(O)CC3)nn2-c2ccc(OC)cc2)cc1 (centres unmarked) [Example 28] |  | microsomal CLint at 2 μmol/L [2]: 3.19 µL/min/mg |
